Results taken from the supplement of paper PMC8612539.
In brackets after ≈: the same amount, converted by molar mass.

Columns and labels:
Enterococcus spp. = test: minimum inhibitory concentration (MIC)
Protocol: (§1)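 Broth microdilution MIC (Sensititre BOPO7F bovine plate, CLSI methods) of 19 antimicrobials against field isolates of P. multocida, M. haemolytica, H. somni (deep nasopharyngeal swabs) and E. coli, Enterococcus spp. (rectal swabs) from weaned dairy heifers. Incubation 16-24 h at 35 C. MIC is the lowest concentration preventing visible growth. Values with <= or > lie at the tested range limits. Trimethoprim-sulfamethoxazole is given as the trimethoprim component of a 1:19 mixture.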

Mannheimia haemolytica = test: minimum inhibitory concentration (MIC)
Protocol: as §1

CCCN1C[C@H](C)[C@@H](O)[C@](C)(O)[C@@H](CC)OC(=O)[C@H](C)[C@@H](O[C@H]2C[C@@](C)(OC)[C@@H](O)[C@H](C)O2)[C@H](C)[C@@H](O[C@@H]2O[C@H](C)C[C@H](N(C)C)[C@H]2O)[C@](C)(O)C[C@H]1C [Gamithromycin]
minimum inhibitory concentration [µg/mL]
Settings | Enterococcus spp. | Mannheimia haemolytica
isolate (source animal id): 2 | ≤ 1 | –
isolate (source animal id): 8 | – | ≤ 1
isolate (source animal id): 13 | – | ≤ 1
isolate (source animal id): 18 | – | ≤ 1
isolate (source animal id): 21 | – | ≤ 1
isolate (source animal id): 25 | – | 4 (≈ 5.15 µM)
isolate (source animal id): 27 | – | 4 (≈ 5.15 µM)
isolate (source animal id): 28 | – | 2 (≈ 2.57 µM)
isolate (source animal id): 30 | – | ≤ 1
isolate (source animal id): 31 | – | 2 (≈ 2.57 µM)
isolate (source animal id): 32 | – | ≤ 1
isolate (source animal id): 34 | – | ≤ 1
isolate (source animal id): 35 | > 8 | –
isolate (source animal id): 36 | – | 4 (≈ 5.15 µM)
isolate (source animal id): 37 | – | 4 (≈ 5.15 µM)
isolate (source animal id): 40 | – | ≤ 1
isolate (source animal id): 41 | – | ≤ 1
isolate (source animal id): 42 | ≤ 1 | –
isolate (source animal id): 43 | – | ≤ 1
isolate (source animal id): 44 | 2 (≈ 2.57 µM) | –
isolate (source animal id): 46 | – | 4 (≈ 5.15 µM)
isolate (source animal id): 49 | – | 2 (≈ 2.57 µM)
isolate (source animal id): 50 | – | 4 (≈ 5.15 µM)
isolate (source animal id): 51 | – | ≤ 1
isolate (source animal id): 52 | – | ≤ 1
isolate (source animal id): 53 | – | ≤ 1
isolate (source animal id): 55 | – | ≤ 1
isolate (source animal id): 56 | – | ≤ 1
isolate (source animal id): 57 | – | > 8
isolate (source animal id): 79 | 2 (≈ 2.57 µM) | –
isolate (source animal id): 88 | ≤ 1 | –
isolate (source animal id): 91 | ≤ 1 | –
isolate (source animal id): 92 | 2 (≈ 2.57 µM) | –
isolate (source animal id): 100 | – | 2 (≈ 2.57 µM)
isolate (source animal id): 103 | – | 4 (≈ 5.15 µM)
isolate (source animal id): 107 | – | 2 (≈ 2.57 µM)
isolate (source animal id): 108 | – | 2 (≈ 2.57 µM)
isolate (source animal id): 111 | ≤ 1 | –
isolate (source animal id): 112 | – | > 8
isolate (source animal id): 113 | – | > 8
isolate (source animal id): 121 | – | 4 (≈ 5.15 µM)
isolate (source animal id): 122 | > 8 | 8 (≈ 10.3 µM)
isolate (source animal id): 123 | ≤ 1 | > 8
isolate (source animal id): 126 | – | > 8
isolate (source animal id): 133 | ≤ 1 | > 8
isolate (source animal id): 135 | – | > 8
isolate (source animal id): 138 | – | > 8
isolate (source animal id): 141 | – | > 8
isolate (source animal id): 142 | – | > 8
isolate (source animal id): 145 | – | 2 (≈ 2.57 µM)
isolate (source animal id): 149 | – | 2 (≈ 2.57 µM)
isolate (source animal id): 151 | – | 2 (≈ 2.57 µM)
isolate (source animal id): 152 | – | 4 (≈ 5.15 µM)
isolate (source animal id): 154 | – | ≤ 1
isolate (source animal id): 158 | > 8 | –
isolate (source animal id): 159 | – | > 8
isolate (source animal id): 162 | – | > 8
isolate (source animal id): 168 | ≤ 1 | –
isolate (source animal id): 169 | ≤ 1 | –
isolate (source animal id): 170 | – | 2 (≈ 2.57 µM)
isolate (source animal id): 171 | ≤ 1 | ≤ 1
isolate (source animal id): 172 | – | 2 (≈ 2.57 µM)
isolate (source animal id): 173 | – | 2 (≈ 2.57 µM)
isolate (source animal id): 175 | > 8 | –
isolate (source animal id): 177 | ≤ 1 | –
isolate (source animal id): 179 | – | ≤ 1
isolate (source animal id): 180 | – | ≤ 1
isolate (source animal id): 181 | ≤ 1 | –
isolate (source animal id): 182 | ≤ 1 | –
isolate (source animal id): 183 | 2 (≈ 2.57 µM) | ≤ 1
isolate (source animal id): 186 | – | ≤ 1
isolate (source animal id): 187 | ≤ 1 | 2 (≈ 2.57 µM)
isolate (source animal id): 188 | – | ≤ 1
isolate (source animal id): 190 | ≤ 1 | ≤ 1
isolate (source animal id): 191 | – | 2 (≈ 2.57 µM)
isolate (source animal id): 192 | – | ≤ 1
isolate (source animal id): 194 | ≤ 1 | –
isolate (source animal id): 195 | ≤ 1 | –
isolate (source animal id): 197 | ≤ 1 | –
isolate (source animal id): 201 | – | 2 (≈ 2.57 µM)
isolate (source animal id): 202 | – | 2 (≈ 2.57 µM)
isolate (source animal id): 209 | – | 2 (≈ 2.57 µM)
isolate (source animal id): 211 | ≤ 1 | 2 (≈ 2.57 µM)
isolate (source animal id): 214 | 4 (≈ 5.15 µM) | –
isolate (source animal id): 220 | – | 2 (≈ 2.57 µM)
isolate (source animal id): 221 | – | ≤ 1
isolate (source animal id): 222 | ≤ 1 | –
isolate (source animal id): 223 | ≤ 1 | 2 (≈ 2.57 µM)
isolate (source animal id): 228 | 8 (≈ 10.3 µM) | –
isolate (source animal id): 230 | 8 (≈ 10.3 µM) | –
isolate (source animal id): 233 | – | 2 (≈ 2.57 µM)
isolate (source animal id): 235 | > 8 | –
isolate (source animal id): 236 | ≤ 1 | –
isolate (source animal id): 237 | – | 4 (≈ 5.15 µM)
isolate (source animal id): 239 | 4 (≈ 5.15 µM) | –
isolate (source animal id): 241 | > 8 | 4 (≈ 5.15 µM)
isolate (source animal id): 244 | ≤ 1 | –
isolate (source animal id): 246 | ≤ 1 | –
isolate (source animal id): 247 | > 8 | –
isolate (source animal id): 250 | ≤ 1 | –
isolate (source animal id): 252 | > 8 | 8 (≈ 10.3 µM)
isolate (source animal id): 253 | – | 8 (≈ 10.3 µM)
isolate (source animal id): 259 | – | > 8
isolate (source animal id): 260 | – | 8 (≈ 10.3 µM)
isolate (source animal id): 262 | – | 4 (≈ 5.15 µM)
isolate (source animal id): 268 | > 8 | –
isolate (source animal id): 282 | ≤ 1 | > 8
isolate (source animal id): 285 | > 8 | –
isolate (source animal id): 287 | – | 8 (≈ 10.3 µM)
isolate (source animal id): 288 | – | ≤ 1
isolate (source animal id): 289 | ≤ 1 | –
isolate (source animal id): 290 | ≤ 1 | –
isolate (source animal id): 291 | – | ≤ 1
isolate (source animal id): 293 | – | 8 (≈ 10.3 µM)
isolate (source animal id): 296 | ≤ 1 | –
isolate (source animal id): 298 | ≤ 1 | > 8
isolate (source animal id): 299 | – | > 8
isolate (source animal id): 300 | – | ≤ 1
isolate (source animal id): 301 | ≤ 1 | –
isolate (source animal id): 302 | – | > 8
isolate (source animal id): 304 | – | > 8
isolate (source animal id): 306 | – | ≤ 1
isolate (source animal id): 308 | – | ≤ 1
isolate (source animal id): 309 | – | ≤ 1
isolate (source animal id): 310 | > 8 | –
isolate (source animal id): 313 | – | > 8
isolate (source animal id): 318 | – | 8 (≈ 10.3 µM)
isolate (source animal id): 320 | ≤ 1 | ≤ 1
isolate (source animal id): 321 | – | > 8
isolate (source animal id): 323 | – | > 8
isolate (source animal id): 324 | – | 8 (≈ 10.3 µM)
isolate (source animal id): 326 | – | > 8
isolate (source animal id): 328 | – | > 8
isolate (source animal id): 329 | – | > 8
isolate (source animal id): 331 | ≤ 1 | –
isolate (source animal id): 333 | ≤ 1 | > 8
isolate (source animal id): 335 | – | 8 (≈ 10.3 µM)
isolate (source animal id): 338 | – | 8 (≈ 10.3 µM)
isolate (source animal id): 341 | > 8 | –
